Measurements as given in US5143925A, “Alteration of rate and character of hair growth” (priority 1991, dated 1992).

Assays:
[1] = tested on: flank organs of male intact Golden Syrian hamsters; test: Hamster flank organ hair growth (hair mass) after topical application; format: in vivo; details: for Flank Organ Hair Mass, Treated: topical 10-25 μl once a day; for Flank Organ Hair Mass, Treated / % Inhibition of hair mass (+SEM): 18 days; for % Inhibition of hair mass (+SEM): treated organ vs vehicle-treated organ of same animal; for Hair shaft structure, microscopic examination: hair shafts harvested from flank organs
Procedure: A vehicle or carrier was prepared having the following composition:
The compound BBD was mixed with separate portions of the foregoing vehicle to provide specimens containing 1,2,5,10, and 20% by weight of the inhibitor respectively.
Five groups (seven or eight animals in each group) of male intact Golden Syrian hamsters were provided. These animals are considered acceptable models for human beard hair growth in that they display oval shaped flank organs, one on each side, each about 8 mm. in major diameter, which grow thick black and coarse hair similar to human beard hair. These organs produce hair in response to androgens in the hamster. The flank organs of each hamster were depilated by applying a thioglycolate-based chemical depilatory (Surgex), and to one organ of each animal was applied 10-25 μl. of vehicle alone once a day, while to the other organ of each animal was applied an equal amount of vehicle containing inhibitor. After 2 1/2 weeks of such applications (five days a week for a total of eighteen days), the flank organs were shaved and the amount of recovered hair (hair mass) from each was weighed. The extent of reduction in hair growth by the inhibitor was expressed as the percent decrease in hair mass on the organ treated with inhibitor as compared to the organ treated with vehicle alone. As a control, one additional control group of eight animals had both flank organs of each animal treated with vehicle alone.

[2] = tested on: transglutaminase; test: Inhibiting effect on transglutaminase activity; format: biochemical

Inhibiting effect on transglutaminase activity [2]: dose related
Structure (SMILES): O=C(N[C@@H](Cc1ccccc1)C(=O)NCC1CC(Br)=NO1)OCc1ccccc1 (some centres unmarked) [BBD, 3-bromo-5-(N-benzyloxycarbonyl-1-phenylalanamido-methyl)-4,5-dihydroisoxazole]
Flank Organ Hair Mass, Treated ([1]; 1% BBD in vehicle): 2.614 ± .19 mg ± SEM
% Inhibition of hair mass (+SEM) ([1]; 1% BBD): 19.54 ± 6.07%
Length of the hair, visual inspection during treatment ([1]; 1-20% BBD, topical, hamster flank organ): decrease in the length of the hair dependent upon the concentration of the inhibitor
Flank Organ Hair Mass, Treated ([1]; 2% BBD in vehicle): 2.827 ± .23 mg ± SEM
% Inhibition of hair mass (+SEM) ([1]; 2% BBD): -3.63 ± 9.91%
Flank Organ Hair Mass, Treated ([1]; 5% BBD in vehicle): 2.279 ± .28 mg ± SEM
% Inhibition of hair mass (+SEM) ([1]; 5% BBD): 22.83 ± 9.62%
Hair shaft structure, microscopic examination ([1]; 5% and 10% concentrations of BBD): less dramatic but visually obvious changes in the medulla of hair shafts
Flank Organ Hair Mass, Treated ([1]; 10% BBD in vehicle): 1.389 ± .12 mg ± SEM
% Inhibition of hair mass (+SEM) ([1]; 10% BBD): 56.08 ± 4.64%
Flank Organ Hair Mass, Treated ([1]; 20% BBD in vehicle): .333 ± .06 mg ± SEM
% Inhibition of hair mass (+SEM) ([1]; 20% BBD): 87.87 ± 1.54%
Hair shaft structure, microscopic examination ([1]; 20% concentration of BBD): dramatic deterioration of the hair shaft structure including disorganization of the medulla and cuticle
